The text below walks through data of patent publication US20230303486A1, “CYCLOBUTYL-UREA DERIVATIVES” (Idorsia Pharmaceuticals Ltd, priority 2020, published 2023).

Test [1] concerns the target T1, Kv7.2/7.3 (human KCNQ2 and KCNQ3 genes) in HEK293 cells (Homo sapiens, UniProt O43525+O43526).
T1 construct: host or cells: HEK293
Description: Kv7.2/3 assay (FLIPR potassium assay, agonist mode). The class given is cell-based. To be noted: Kv7.2/7.3 activation, responses relative to Flupirtine. As to the method:
HEK293 cells were stably transfected with the appropriate ion channel cDNA(s) (human KCNQ2 and KCNQ3 genes). Cells were cultured in Dulbecco’s Modified Eagle Medium /Nutrient mixture F-12 (D-MEM/F-12) supplemented with 10% fetal bovine serum, 100 U/mL penicillin G sodium, 100 µg/mL streptomycin sulfate and selection antibiotics. FLIPR Test Procedure: For FLIPR assay, cells were plated in 384-well black clear-bottomed microtiter plates (BD Biocoat Poly-D-Lysine Multiwell Cell Culture Plate) at 15′000 to 30′000 cells per well. Cells were incubated at 37° C. overnight or until cells reached sufficient density in the wells (near confluent monolayer) to use in fluorescence assays. […] Assays were performed with the FLIPR potassium assay kit (Molecular Devices) according to the manufacturer’s instructions. Dye-loading: Growth media was removed and replaced with 20 µL of dye loading buffer for 60 min at room temperature. FLIPR Recording (agonist mode): Stock solutions of test compounds were prepared at a concentration of 33.3 mM in DMSO. 5 µL of 5x concentrated test, vehicle, or control compounds solutions prepared in the stimulation buffer (K^+-free buffer with 5 mM TI^+) were added to each well and fluorescence recording was continued for 5 min. The agonist effect (EC50 and % effect) of test or control compounds on Kv7 channels was determined as follows: Raw data was exported using Screenworks® 4.2 software and the fluorescence traces were analysed using Microsoft Excel (Microsoft Corp., Redmond, WA). The test compounds responses were expressed as % of maximum response of the control compound Flupirtine (Sigma-Aldrich), which was tested at concentrations ranging from 0.03 to 100 µM. Concentration-response data were fitted to a Hill equation. Non-linear least squares fits were made assuming a simple binding model. If appropriate, fits were weighted by the standard deviation. No assumptions about the fit parameters were made; the fit parameters were determined by the algorithm.

Test [2] deals with audiogenic generalized convulsive seizures in DBA/2J mice. Description: Audiogenic seizure-sensitive mouse model of generalized convulsive seizures. The class given is in vivo. To be noted: 10 mg/kg po, challenge 1h. How it is done: Compounds were formulated in a 10% polyethylene glycol 400 (PEG 400) / 90% aqueous solution of 0.5 % methylcellulose (MC 0.5%). Firstly drugs are dissolved in PEG 400 and then suspended in MC 0.5 % for oral gavage at Xmg/5 mL/kg (X see table).
• 1. Procedure: Following two days of acclimatisation, auditory seizures are induced in male juvenile DBA/2J mice (22-24 days old; Janvier Labs, France). Each mouse is placed individually in the exposure chamber, an hemispheric acrylic glass dome (diameter: 50 cm) within a sound-attenuated box. The soundattenuated box is equipped with two house lights and a camera system (Fire-I from Unibrain) in order to observe and record the behavioral seizure response. After 60 seconds of habituation, the stimulus, a mixed frequency tone of 15-20 kHz at 110 dB (SASLab Lite, Avisoft Bioacoustics), is played from a speaker that is placed on the top center of the dome. […] Seizures are classified as following: stage 0, normal behavior; stage 1, wild running; stage 2, generalized clonus; stage 3, tonic extension of the hind limbs. • 2. Compounds testing: Acute compound effects on audiogenic generalized convulsive seizures are evaluated in independent groups of 8-10 mice randomly assigned. Following oral administration of compound or vehicle, the maximum seizure stage during sound exposure is assessed. Compounds are given 1 hour before exposure to the stimulus. Each mouse is exposed to the auditory stimulus only once and euthanized afterwards by CO2 inhalation.

pEC50: −log10 of the molar value.

As a reminder, the pEC50 is the negative decadic logarithm of the EC50, by convention in mol/L. Regarding `O=C(NCc1cccc(C(F)(F)F)c1)NC1CC(C(F)F)C1` (single isomer, unassigned) [Example 53, 1-(3-(Difluoromethyl)Cyclobutyl)-3-(3-(Trifluoromethyl)Benzyl)Urea], in test [1], the pEC50 is 7.09. The “Seizure stage [% vs. vehicle]” value in test [2] is -78 % vs. vehicle.

`O=C(NCc1cccc(C(F)(F)F)c1)NC12CC(C(F)F)(C1)C2` [Example 47, 1-(3-Difluoromethyl-Bicyclo[1.1.1]Pent-1-yl)-3-(3-Trifluoromethyl-Benzyl)-Urea] had a pEC50 in test [1] of 7.23. Also, the “Seizure stage [% vs. vehicle]” value in test [2] is listed as -92 % vs. vehicle.
